From patent publication US7718641B2, “Pyrrolo [3,4-H] isoquinoline compounds and methods for modulating gated ion channels” (Aros Pharma ApS, priority 2005, dated 2010)

Columns and labels:
[1] = molecular target: T1, homomeric hASIC1a (Homo sapiens, UniProt P78348); test: Two-electrode voltage clamp in Xenopus laevis oocytes expressing homomeric hASIC1a; type: cell-based; conditions: 30 μM, OpusExpress
T1 construct: expressed in transfected cells; host or cells: Xenopus laevis oocytes (nuclear cDNA microinjection)
T1 sequence (P78348 1-528): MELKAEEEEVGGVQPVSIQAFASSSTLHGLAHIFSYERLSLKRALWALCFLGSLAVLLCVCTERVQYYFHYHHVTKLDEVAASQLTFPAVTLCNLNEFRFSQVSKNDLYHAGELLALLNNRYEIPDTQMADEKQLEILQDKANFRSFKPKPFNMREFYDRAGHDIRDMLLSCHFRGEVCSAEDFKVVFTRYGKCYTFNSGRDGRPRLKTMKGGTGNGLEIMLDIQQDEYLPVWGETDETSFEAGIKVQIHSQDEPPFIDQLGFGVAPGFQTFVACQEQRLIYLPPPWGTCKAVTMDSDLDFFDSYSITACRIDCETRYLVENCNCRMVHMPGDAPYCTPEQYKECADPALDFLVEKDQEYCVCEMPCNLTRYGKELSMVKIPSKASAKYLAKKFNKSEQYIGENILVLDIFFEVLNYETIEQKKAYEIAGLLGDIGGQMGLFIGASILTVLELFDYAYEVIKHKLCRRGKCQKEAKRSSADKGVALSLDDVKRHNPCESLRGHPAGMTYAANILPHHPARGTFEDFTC
Protocol: (§1) Two-electrode voltage clamp electrophysiological assays in Xenopus laevis oocytes expressing gated ion channels are performed as follows:
(§2) Oocytes are surgically removed from adult Xenopus laevis and treated for 2 h at room temperature with 1 mg/ml type I collagenase (Sigma) in Barth's solution under mild agitation. Selected oocytes at stage IV-V are defolliculated manually before nuclear microinjection of 2.5-5 ng of a suitable expression vector, such as pcDNA3, comprising the nucleotide sequence encoding a gated ion channel subunit protein. In such an experiment, the oocytes express homomultimeric proton-gated ion channels on their surface. In an alternate experiment, one, two, three or more vectors comprising the coding sequences for distinct gated ion channel subunits are co-injected in the oocyte nuclei. […] After 2-4 days of expression at 19° C. in Barth's solution containing […] gentamicin and 1.8 mM CaCl2, gated ion channels are activated by applying an acidic solution (pH <7) and currents are recorded in a two electrode voltage-clamp configuration, using an OC-725B amplifier (Warner Instruments). Currents are acquired and digitized at 500 Hz on an Apple Imac G3 computer with an A/D NB-MIO-16XL interface (National Instruments) and recorded traces are post-filtered at 100 Hz in Axograph (Axon Instruments) (Neher, E. and Sakmann, B. (1976) Nature 260:799-802). […]

[2] = molecular target: T2, heteromeric hASIC1a+3 (Homo sapiens, UniProt P78348+Q9UHC3); test: Two-electrode voltage clamp in Xenopus laevis oocytes expressing heteromeric hASIC1a+3; type: cell-based; parameters: expressed in transfected cells; conditions: 30 μM, OpusExpress
T2 sequence (P78348 1-528): T1 sequence (P78348 1-528)
T2 sequence (Q9UHC3 1-531): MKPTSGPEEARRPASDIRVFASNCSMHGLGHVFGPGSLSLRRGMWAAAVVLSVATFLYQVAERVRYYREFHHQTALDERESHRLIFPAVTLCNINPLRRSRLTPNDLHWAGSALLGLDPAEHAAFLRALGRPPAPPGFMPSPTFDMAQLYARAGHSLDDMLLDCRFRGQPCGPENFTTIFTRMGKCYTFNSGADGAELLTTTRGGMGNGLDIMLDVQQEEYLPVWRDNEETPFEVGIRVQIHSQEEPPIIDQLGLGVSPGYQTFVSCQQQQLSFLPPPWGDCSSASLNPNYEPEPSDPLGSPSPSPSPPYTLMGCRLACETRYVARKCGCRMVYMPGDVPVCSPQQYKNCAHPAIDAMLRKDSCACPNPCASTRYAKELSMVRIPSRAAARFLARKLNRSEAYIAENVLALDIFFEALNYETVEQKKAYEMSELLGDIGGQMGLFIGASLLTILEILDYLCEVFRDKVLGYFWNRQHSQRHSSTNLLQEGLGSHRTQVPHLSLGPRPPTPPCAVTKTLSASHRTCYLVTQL
Protocol: as §1, §2

effect on inward currents elicited by pH 6.5, homomeric hASIC1a [1]: effectively modulates the activity
effect on inward currents elicited by pH 6.5, heteromeric hASIC1a+3 [2]: effectively modulates the activity
Structure (SMILES): COc1ccc(F)cc1-c1cc2c(c3c1CCN(C)C3)NC(=O)/C2=N/O [Compound A, 5-(5-fluoro-2-methoxyphenyl)-6,7,8,9-tetrahydro-3-(hydroxyimino)-8-methyl-1H-pyrrolo[3,2-h]isoquinoline-2(3H)-one]
